# Data reported in US10370360B2, “Small-molecule inhibitors targeting discoidin domain receptor 1 and uses thereof” (priority 2014, dated 2019).
# How the values were obtained:
# Format in all cases: biochemical
# c-Kit = c-Kit (Homo sapiens (Human), UniProt P10721); test: FRET-based Z'-Lyte kinase assay, c-kit; conditions: 300 μM ATP
# DDR2 = DDR2 (Homo sapiens (Human), UniProt Q16832); test: LanthaScreen Eu kinase activity assay, DDR2; conditions: 100 nM ATP
# DDR1 = DDR1 (Homo sapiens (Human), UniProt Q08345); test: LanthaScreen Eu kinase activity assay, DDR1; conditions: 100 nM ATP
# Bcr-Abl = test: FRET-based Z'-Lyte kinase assay, Abl; conditions: 10 μM ATP; cells printed in μM
# Sequence of Bcr-Abl (P00519 whole entry): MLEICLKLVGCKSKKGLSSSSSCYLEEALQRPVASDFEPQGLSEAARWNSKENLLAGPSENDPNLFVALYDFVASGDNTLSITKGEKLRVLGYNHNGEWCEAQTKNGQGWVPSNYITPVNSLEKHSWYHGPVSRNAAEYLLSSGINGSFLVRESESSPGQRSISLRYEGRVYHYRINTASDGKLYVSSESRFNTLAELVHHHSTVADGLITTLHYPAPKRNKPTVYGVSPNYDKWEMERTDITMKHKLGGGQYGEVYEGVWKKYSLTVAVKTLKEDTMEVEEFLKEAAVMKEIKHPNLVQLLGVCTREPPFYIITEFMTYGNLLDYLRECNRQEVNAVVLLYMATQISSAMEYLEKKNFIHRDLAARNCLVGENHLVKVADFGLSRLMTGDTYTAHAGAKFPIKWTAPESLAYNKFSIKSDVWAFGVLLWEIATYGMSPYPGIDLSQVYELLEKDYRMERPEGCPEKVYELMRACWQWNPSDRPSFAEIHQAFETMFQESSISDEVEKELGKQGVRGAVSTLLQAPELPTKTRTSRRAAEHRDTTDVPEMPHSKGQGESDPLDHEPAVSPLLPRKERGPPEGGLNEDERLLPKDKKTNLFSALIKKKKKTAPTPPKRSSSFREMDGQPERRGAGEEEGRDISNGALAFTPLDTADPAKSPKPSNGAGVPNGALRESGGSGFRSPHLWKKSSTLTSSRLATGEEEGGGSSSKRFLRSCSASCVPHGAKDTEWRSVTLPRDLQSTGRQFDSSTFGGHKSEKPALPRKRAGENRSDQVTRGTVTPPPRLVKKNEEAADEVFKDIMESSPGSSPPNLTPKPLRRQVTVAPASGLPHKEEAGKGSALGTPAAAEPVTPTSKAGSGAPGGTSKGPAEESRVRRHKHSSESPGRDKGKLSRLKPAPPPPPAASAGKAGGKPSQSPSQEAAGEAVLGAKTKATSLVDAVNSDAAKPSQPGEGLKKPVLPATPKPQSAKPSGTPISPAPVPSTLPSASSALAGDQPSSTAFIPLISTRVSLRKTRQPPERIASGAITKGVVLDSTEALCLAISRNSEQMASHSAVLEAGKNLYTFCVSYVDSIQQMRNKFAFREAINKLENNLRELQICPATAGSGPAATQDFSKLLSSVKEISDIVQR
# Sequence of DDR1 (Q08345 19-913): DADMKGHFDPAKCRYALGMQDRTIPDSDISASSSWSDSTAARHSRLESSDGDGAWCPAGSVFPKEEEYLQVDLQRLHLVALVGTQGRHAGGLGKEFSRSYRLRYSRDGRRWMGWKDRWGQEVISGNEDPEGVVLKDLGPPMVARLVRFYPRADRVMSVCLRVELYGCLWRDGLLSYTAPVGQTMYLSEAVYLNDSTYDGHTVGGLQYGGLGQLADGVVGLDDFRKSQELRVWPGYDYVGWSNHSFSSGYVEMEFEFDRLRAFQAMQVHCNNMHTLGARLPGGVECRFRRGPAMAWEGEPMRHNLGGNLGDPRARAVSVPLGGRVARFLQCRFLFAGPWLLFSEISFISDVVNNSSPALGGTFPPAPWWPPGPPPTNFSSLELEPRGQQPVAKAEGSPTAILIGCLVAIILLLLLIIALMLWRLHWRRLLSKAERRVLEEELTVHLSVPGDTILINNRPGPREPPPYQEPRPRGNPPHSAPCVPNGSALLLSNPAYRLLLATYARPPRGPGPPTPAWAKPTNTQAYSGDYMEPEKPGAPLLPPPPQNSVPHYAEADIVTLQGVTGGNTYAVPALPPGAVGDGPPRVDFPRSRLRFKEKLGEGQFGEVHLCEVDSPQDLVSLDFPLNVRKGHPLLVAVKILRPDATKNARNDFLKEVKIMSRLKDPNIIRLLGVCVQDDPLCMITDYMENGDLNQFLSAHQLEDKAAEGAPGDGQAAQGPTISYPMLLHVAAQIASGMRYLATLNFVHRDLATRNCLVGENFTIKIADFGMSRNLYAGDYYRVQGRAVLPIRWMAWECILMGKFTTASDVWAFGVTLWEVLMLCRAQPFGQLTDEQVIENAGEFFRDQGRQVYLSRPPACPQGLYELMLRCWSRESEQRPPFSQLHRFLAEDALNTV
# Sequence of DDR2 (Q16832 22-855): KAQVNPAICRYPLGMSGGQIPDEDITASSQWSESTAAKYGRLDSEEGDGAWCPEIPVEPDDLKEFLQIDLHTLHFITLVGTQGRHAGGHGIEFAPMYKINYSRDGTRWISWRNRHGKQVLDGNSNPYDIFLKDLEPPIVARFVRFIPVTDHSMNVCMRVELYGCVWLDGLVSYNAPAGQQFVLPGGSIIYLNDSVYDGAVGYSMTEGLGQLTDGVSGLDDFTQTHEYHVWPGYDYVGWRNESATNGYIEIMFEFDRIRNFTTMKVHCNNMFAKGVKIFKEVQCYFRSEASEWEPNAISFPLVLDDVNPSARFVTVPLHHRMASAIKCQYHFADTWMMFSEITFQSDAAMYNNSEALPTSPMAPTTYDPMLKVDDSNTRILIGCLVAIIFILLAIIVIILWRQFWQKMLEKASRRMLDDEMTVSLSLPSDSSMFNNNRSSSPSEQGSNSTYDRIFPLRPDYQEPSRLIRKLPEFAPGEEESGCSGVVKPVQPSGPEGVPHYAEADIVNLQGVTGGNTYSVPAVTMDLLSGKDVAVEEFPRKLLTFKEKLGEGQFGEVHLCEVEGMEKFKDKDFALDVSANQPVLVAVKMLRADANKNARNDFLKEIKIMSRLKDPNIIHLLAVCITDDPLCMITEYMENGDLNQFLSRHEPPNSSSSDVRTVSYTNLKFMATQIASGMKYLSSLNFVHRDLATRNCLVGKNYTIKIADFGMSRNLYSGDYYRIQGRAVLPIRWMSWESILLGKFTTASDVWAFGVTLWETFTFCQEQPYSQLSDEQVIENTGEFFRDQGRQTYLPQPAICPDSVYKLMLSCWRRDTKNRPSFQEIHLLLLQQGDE
# Sequence of c-Kit (P10721 26-976): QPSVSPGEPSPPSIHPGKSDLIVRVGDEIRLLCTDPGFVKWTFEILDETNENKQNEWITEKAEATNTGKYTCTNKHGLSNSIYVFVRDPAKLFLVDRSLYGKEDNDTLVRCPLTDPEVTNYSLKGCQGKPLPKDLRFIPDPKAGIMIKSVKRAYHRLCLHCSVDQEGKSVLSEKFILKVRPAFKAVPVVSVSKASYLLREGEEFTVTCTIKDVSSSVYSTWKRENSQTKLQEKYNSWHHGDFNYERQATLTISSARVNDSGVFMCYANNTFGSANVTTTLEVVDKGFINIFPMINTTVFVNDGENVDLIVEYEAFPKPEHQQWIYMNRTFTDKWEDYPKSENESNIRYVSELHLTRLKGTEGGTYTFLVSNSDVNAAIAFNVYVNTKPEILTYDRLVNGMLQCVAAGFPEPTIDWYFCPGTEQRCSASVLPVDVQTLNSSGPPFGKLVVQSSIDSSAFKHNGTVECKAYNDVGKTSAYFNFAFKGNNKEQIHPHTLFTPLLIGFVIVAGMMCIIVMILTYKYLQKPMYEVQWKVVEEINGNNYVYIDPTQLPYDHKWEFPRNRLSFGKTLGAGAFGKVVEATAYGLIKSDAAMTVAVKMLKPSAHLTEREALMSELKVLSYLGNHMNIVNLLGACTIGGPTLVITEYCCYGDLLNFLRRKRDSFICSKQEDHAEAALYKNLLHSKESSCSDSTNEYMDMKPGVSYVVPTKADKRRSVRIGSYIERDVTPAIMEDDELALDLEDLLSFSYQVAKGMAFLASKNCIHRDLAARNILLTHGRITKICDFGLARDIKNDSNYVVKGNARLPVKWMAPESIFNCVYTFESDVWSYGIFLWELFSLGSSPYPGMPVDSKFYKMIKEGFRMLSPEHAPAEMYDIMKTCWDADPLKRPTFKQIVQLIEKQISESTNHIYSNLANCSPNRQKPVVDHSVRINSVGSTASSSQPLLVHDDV
SMILES,IC50 (c-Kit),IC50 (DDR2; cells printed in μM),IC50 (DDR1),IC50 (Bcr-Abl),IC50 (DDR2; cells without unit)
"CC1CN(c2cncnc2)Cc2cc(C(=O)Nc3cc(CN4CCN(C)CC4)cc(C(F)(F)F)c3)ccc21 (stereo not shown) [Example 1, 4-methyl-N-(3-((4-methylpiperazin-1-yl)methyl)-5-(trifluoromethyl)phenyl)-2-(pyrimidin-5-yl)-1,2,3,4-tetrahydroisoquinoline-7-carboxamide]",> 10000 nM,,,,
"CN1CCN(Cc2cc(NC(=O)c3ccc4c(c3)CN(c3cncnc3)CC4)cc(C(F)(F)F)c2)CC1 [Example 3, N-(3-((4-methylpiperazin-1-yl)methyl)-5-(trifluoromethyl)phenyl)-2-(pyrimidin-5-yl)-1,2,3,4-tetrahydroisoquinoline-7-carboxamide]",> 10000 nM,8 µM,,,
"CN1CCN(Cc2cc(NC(=O)c3ccc4c(c3)CN(c3cccnc3)CC4)cc(C(F)(F)F)c2)CC1 [Example 4, N-(3-((4-methylpiperazin-1-yl)methyl)-5-(trifluoromethyl)phenyl)-2-(pyridin-3-yl)-1,2,3,4-tetrahydroisoquinoline-7-carboxamide]",> 10000 nM,4.3 µM,,,
"CN1CCN(Cc2cc(NC(=O)c3ccc4c(c3)CN(c3cnc5ccccc5c3)CC4)cc(C(F)(F)F)c2)CC1 [Example 5, N-(3-((4-methylpiperazin-1-yl)methyl)-5-(trifluoromethyl)phenyl)-2-(quinolin-3-yl)-1,2,3,4-tetrahydroisoquinoline-7-carboxamide]",8700 nM,,,,
"CC1CN(c2cccnc2)Cc2cc(C(=O)Nc3cc(CN4CCN(C)CC4)cc(C(F)(F)F)c3)ccc21 (stereo not shown) [Example 6, 4-methyl-N-(3-((4-methylpiperazin-1-yl)methyl)-5-(trifluoromethyl)phenyl)-2-(pyridin-3-yl)-1,2,3,4-tetrahydroisoquinoline-7-carboxamide]",> 10000 nM,1.2 µM,,,
"CN1CCN(Cc2cc(NC(=O)c3ccc4c(c3)CN(c3cncnc3)CC4(C)C)cc(C(F)(F)F)c2)CC1 [Example 7, 4,4-dimethyl-N-(3-((4-methylpiperazin-1-yl)methyl)-5-(trifluoromethyl)phenyl)-2-(pyrimidin-5-yl)-1,2,3,4-tetrahydroisoquinoline-7-carboxamide]",> 10000 nM,4.5 µM,223 nM,> 10 µM,
"CC1CN(c2cncnc2)Cc2cc(C(=O)Nc3cc(CN4CCN(C)CC4)c(Cl)c(C(F)(F)F)c3)ccc21 (stereo not shown) [Example 8, N-(4-chloro-3-((4-methylpiperazin-1-yl)methyl)-5-(trifluoromethyl)phenyl)-4-methyl-2-(pyrimidin-5-yl)-1,2,3,4-tetrahydroisoquinoline-7-carboxamide]",> 10000 nM,,,,0.915 µM
"Cc1c(CN2CCN(C)CC2)cc(NC(=O)c2ccc3c(c2)CN(c2cncnc2)CC3C)cc1C(F)(F)F (stereo not shown) [Example 9, 4-methyl-N-(4-methyl-3-((4-methylpiperazin-1-yl)methyl)-5-(trifluoromethyl)phenyl)-2-(pyrimidin-5-yl)-1,2,3,4-tetrahydroisoquinoline-7-carboxamide]",> 10000 nM,1.1 µM,,,
"CC1CN(c2cncnc2)Cc2cc(C(=O)Nc3cc(CCN4CCN(C)CC4)cc(C(F)(F)F)c3)ccc21 (stereo not shown) [Example 10, 4-methyl-N-(3-(2-(4-methylpiperazin-1-yl)ethyl)-5-(trifluoromethyl)phenyl)-2-(pyrimidin-5-yl)-1,2,3,4-tetrahydroisoquinoline-7-carboxamide]",> 10000 nM,,36.7 nM,> 10 µM,0.449 µM
CC1CN(c2cncnc2)Cc2cc(C(=O)Nc3cc(N4CCN(C)CC4)cc(C(F)(F)F)c3)ccc21 (stereo not shown) [Example 11],> 10000 nM,2.2 µM,132 nM,> 10 µM,
"CC1CN(c2cncnc2)Cc2cc(C(=O)Nc3ccc(CN4CCN(C)CC4)c(C(F)(F)F)c3)ccc21 (stereo not shown) [Example 12, 4-methyl-N-(4-((4-methylpiperazin-1-yl)methyl)-3-(trifluoromethyl)phenyl)-2-(pyrimidin-5-yl)-1,2,3,4-tetrahydroisoquinoline-7-carboxamide]",> 10000 nM,,19.9 nM,,0.334 µM
"CC1CN(c2cncnc2)Cc2cc(C(=O)Nc3cccc(C(F)(F)F)c3)ccc21 (stereo not shown) [Example 13, 4-methyl-2-(pyrimidin-5-yl)-N-(3-(trifluoromethyl)phenyl)-1,2,3,4-tetrahydroisoquinoline-7-carboxamide]",> 10000 nM,10 µM,191 nM,> 10 µM,
"CC1CN(c2cncnc2)Cc2cc(C(=O)Nc3cc(CN4CCCN(C)CC4)cc(C(F)(F)F)c3)ccc21 (stereo not shown) [Example 14, 4-methyl-N-(3-((4-methyl-1,4-diazepan-1-yl)methyl)-5-(trifluoromethyl)phenyl)-2-(pyrimidin-5-yl)-1,2,3,4-tetrahydroisoquinoline-7-carboxamide]",> 10000 nM,,25.6 nM,> 10 µM,0.604 µM
"CCc1cc(CN2CCN(C)CC2)cc(NC(=O)c2ccc3c(c2)CN(c2cncnc2)CC3C)c1 (stereo not shown) [Example 15, N-(3-ethyl-5-((4-methylpiperazin-1-yl)methyl)phenyl)-4-methyl-2-(pyrimidin-5-yl)-1,2,3,4-tetrahydroisoquinoline-7-carboxamide]",> 10000 nM,1.4 µM,50.5 nM,> 10 µM,
"CC1CN(c2cncnc2)Cc2cc(C(=O)Nc3cc(CN(C)CCN(C)C)cc(C(F)(F)F)c3)ccc21 (stereo not shown) [Example 23, N-(3-(((2-(dimethylamino)ethyl)(methyl)amino)methyl)-5-(trifluoromethyl)phenyl)-4-methyl-2-(pyrimidin-5-yl)-1,2,3,4-tetrahydroisoquinoline-7-carboxamide]",> 10000 nM,1.2 µM,,,
"CC1CN(c2cncnc2)Cc2cc(C(=O)Nc3cc(CN4CC[C@@H](N(C)C)C4)cc(C(F)(F)F)c3)ccc21 (stereo partly drawn) [Example 24, N-(3-(((R)-3-(dimethylamino)pyrrolidin-1-yl)methyl)-5-(trifluoromethyl)phenyl)-4-methyl-2-(pyrimidin-5-yl)-1,2,3,4-tetrahydroisoquinoline-7-carboxamide]",> 10000 nM,,,,0.672 µM
"CC1CN(c2cncnc2)Cc2cc(C(=O)Nc3cc(CN4CC[C@H](N(C)C)C4)cc(C(F)(F)F)c3)ccc21 (stereo partly drawn) [Example 25, N-(3-(((S)-3-(dimethylamino)pyrrolidin-1-yl)methyl)-5-(trifluoromethyl)phenyl)-4-methyl-2-(pyrimidin-5-yl)-1,2,3,4-tetrahydroisoquinoline-7-carboxamide]",> 10000 nM,,,,0.862 µM
"CC1CN(c2cncnc2)Cc2cc(C(=O)Nc3cc(CN4CCN(C)CC4)c(F)c(C(F)(F)F)c3)ccc21 (stereo not shown) [Example 27, N-(4-fluoro-3-((4-methylpiperazin-1-yl)methyl)-5-(trifluoromethyl)phenyl)-4-methyl-2-(pyrimidin-5-yl)-1,2,3,4-tetrahydroisoquinoline-7-carboxamide]",> 10000 nM,1.4 µM,,,
"CC1CN(c2cncnc2)Cc2cc(C(=O)Nc3cc(CN4CCN(C)CC4)cc(C(C)(C)C)c3)ccc21 (stereo not shown) [Example 28, N-(3-tert-butyl-5-((4-methylpiperazin-1-yl)methyl)phenyl)-4-methyl-2-(pyrimidin-5-yl)-1,2,3,4-tetrahydroisoquinoline-7-carboxamide]",> 10000 nM,,66.6 nM,,0.94 µM
"CC1CN(c2cncnc2)Cc2cc(C(=O)Nc3cc(CN4CCN(C)CC4)cc(-c4ccccc4)c3)ccc21 (stereo not shown) [Example 29, 4-methyl-N-(5-((4-methylpiperazin-1-yl)methyl)biphenyl-3-yl)-2-(pyrimidin-5-yl)-1,2,3,4-tetrahydroisoquinoline-7-carboxamide]",> 10000 nM,1.4 µM,44.6 nM,,
"CC1CN(c2cncnc2)Cc2cc(C(=O)Nc3cc(CN4CCN(C)CC4)cc(C4CC4)c3)ccc21 (stereo not shown) [Example 31, N-(3-cyclopropyl-5-((4-methylpiperazin-1-yl)methyl)phenyl)-4-methyl-2-(pyrimidin-5-yl)-1,2,3,4-tetrahydroisoquinoline-7-carboxamide]",> 10000 nM,1.1 µM,89 nM,,
"CC1CN(c2cncnc2)Cc2cc(C(=O)Nc3cc(CN4CCN(C)CC4)cc(C4CCCC4)c3)ccc21 (stereo not shown) [Example 32, N-(3-cyclopentyl-5-((4-methylpiperazin-1-yl)methyl)phenyl)-4-methyl-2-(pyrimidin-5-yl)-1,2,3,4-tetrahydroisoquinoline-7-carboxamide]",> 10000 nM,,,,0.306 µM
"CCC1CN(c2cncnc2)Cc2cc(C(=O)Nc3cc(CN4CCN(C)CC4)cc(C(F)(F)F)c3)ccc21 (stereo not shown) [Example 34, 4-ethyl-N-(3-((4-methylpiperazin-1-yl)methyl)-5-(trifluoromethyl)phenyl)-2-(pyrimidin-5-yl)-1,2,3,4-tetrahydroisoquinoline-7-carboxamide]",> 10000 nM,2 µM,,,
"CN1CCN(Cc2cc(C(=O)Nc3ccc4c(c3)CN(c3cncnc3)CC4)cc(C(F)(F)F)c2)CC1 [Example 36, 3-((4-methylpiperazin-1-yl)methyl)-N-(2-(pyrimidin-5-yl)-1,2,3,4-tetrahydroisoquinolin-7-yl)-5-(trifluoromethyl)benzamide]",> 10000 nM,7.8 µM,,,
"C[C@@H]1CN(c2cncnc2)Cc2cc(C(=O)Nc3cc(CN4CCN(C)CC4)cc(C(F)(F)F)c3)ccc21 [Example 37, (S)-4-methyl-N-(3-((4-methylpiperazin-1-yl)methyl)-5-(trifluoromethyl)phenyl)-2-(pyrimidin-5-yl)-1,2,3,4-tetrahydroisoquinoline-7-carboxamide]",> 10000 nM,,,,
"C[C@H]1CN(c2cncnc2)Cc2cc(C(=O)Nc3cc(CN4CCN(C)CC4)cc(C(F)(F)F)c3)ccc21 [Example 38, (R)-4-methyl-N-(3-((4-methylpiperazin-1-yl)methyl)-5-(trifluoromethyl)phenyl)-2-(pyrimidin-5-yl)-1,2,3,4-tetrahydroisoquinoline-7-carboxamide]",> 10000 nM,,,,
